Laboratory results as given in the supplement of paper PMC10790783.

What follows are molecules tested on MRC5-hT fibroblasts expressing HCMV UL38 (glucose-free medium) (assay: rescue of cell number (AUC of dose-response) relative to untreated glucose-free control; higher = stronger protection from glucose-starvation-induced cell death). Settings: glucose: 0 (glucose-free DMEM); 96 h; dose range 0.001-20, 10-point curve µM.
Experimental: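 MRC5-hT fibroblasts stably expressing HCMV UL38 were seeded in 384-well plates, serum-starved for 24 h, switched to glucose-free DMEM, and pin-transferred with a metabolism-focused compound library as 10-point dose curves (1 nM to 20 µM; n=2). Nuclei were counted by Hoechst imaging 96 h after glucose withdrawal.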

In order of rising “rescue of cell number” value:
1. O=C(Nc1ccccc1)Nc1ccc(-c2ccc(C(=O)[C@@H]3CCC[C@H]3C(=O)O)cc2)cc1  -36.5%
2. Oc1ccc(/C=C/c2cc(O)cc(O)c2)cc1 [Resveratrol]  -35.9%
3. CCc1nc(N)nc(N)c1-c1ccc(Cl)cc1 [Pyrimethamine]  -35.1%
4. NS(=O)(=O)c1ccc(NC(=O)Nc2ccc(F)cc2)cc1 [U_104]  -34.7%
5. CCOc1ccc(Cc2cc([C@@H]3O[C@H](CO)[C@@H](O)[C@H](O)[C@H]3O)ccc2Cl)cc1 [Dapagliflozin]  -33.4%
6. O[C@H]1[C@H]2[C@H](O)CCCN2C[C@H]1O [Swainsonine]  -31.9%
7. O=C(O)CC[N+](=O)[O-] [3_Nitropropionic_acid]  -31.7%
8. NC(=O)c1ncn([C@@H]2O[C@H](CO)[C@@H](O)[C@H]2O)c1N [AICAR]  -30.3%
9. CCCCC[C@H](O)CC(=O)CCc1ccc(O)c(OC)c1 [[6]-Gingerol]  -29.7%
10. S=c1nc[nH]c2nc[nH]c12 [6_Mercaptopurine]  -28.9%
11. CCc1ccc(Cc2ccc3c(c2)[C@]2(OC3)O[C@H](CO)[C@@H](O)[C@H](O)[C@H]2O)cc1 [Tofogliflozin hydrate]  -27.9%
12. Cc1nc(=O)c2cc(CN(C)c3ccc(C(=O)N[C@@H](CCC(=O)O)C(=O)O)s3)ccc2[nH]1 [Raltitrexed]  -26.7%
13. NC(=O)c1ncn([C@@H]2O[C@H](CO)[C@@H](O)[C@H]2O)c1O [Mizoribine]  -26.6%
14. CNC(=O)c1ccc2cc([C@@]3(O)CCn4cncc43)ccc2c1 [TAK_700]  -25.3%
15. O=C(Cc1ccccc1)Nc1nnc(CCSCCc2nnc(NC(=O)Cc3ccccc3)s2)s1 [BPTES]  -24.3%
16. Oc1ncnc2[nH]ncc12 [Allopurinol]  -22.3%
17. CCCCNc1cc(C(=O)O)cc(S(N)(=O)=O)c1Oc1ccccc1 [Bumetanide]  -20.9%
18. [N-]=[N+]=CC(=O)OC[C@H](N)C(=O)O [Azaserine]  -20.4%
19. C[N+](C)(C)CCO.C[N+](C)(C)CCO.[SH-].[SH-].[S]=[Mo]=[S] [ATN-224]  -20.1%
20. CC(c1cc2ccccc2s1)N(O)C(N)=O (centres undefined) [Zileuton]  -16.9%
21. CN(C/C=C/C#CC(C)(C)C)Cc1cccc2ccccc12 [Terbinafine_HCl]  -15.4%
22. O=c1[nH]cc(F)c(=O)[nH]1 [5_Fluorouracil]  -15.2%
23. O=C(c1cc(Cc2n[nH]c(=O)c3ccccc23)ccc1F)N1CCN(C(=O)C2CC2)CC1 [Olaparib]  -15.1%
24. CN1CCN(C(=O)c2ccc(-c3ccc4c(C=O)c(O)ccc4c3)s2)CC1 [MKC3946]  -14.6%
25. OC[C@H]1O[C@H]([S-])[C@H](O)[C@@H](O)[C@@H]1O.[Au+] [Aurothioglucose]  -13.7%
26. CCCCCCCC/C=C\CCCCCCCC(=O)NCCO [Oleylethanolamide]  -13.2%
27. N=C(N)NC(=N)NCCc1ccccc1 [Phenformin]  -11.3%
28. N#CSc1cc(SC#N)c(N)nc1N [PR-619]  -9.68%
29. CCOC(=O)[C@@H](N)CCC(=O)N[C@@H](CSCc1ccccc1)C(=O)N[C@@H](C(=O)OCC)c1ccccc1 [Ezatiostat]  -9.45%
30. N#Cc1ccnc(N2C(=O)CC[C@H]2C(=O)N(c2cncc(F)c2)[C@H](C(=O)NC2CC(F)(F)C2)c2ccccc2Cl)c1 [AG-120]  -8.45%
31. C/C(O)=C(\C#N)C(=O)Nc1ccc(C(F)(F)F)cc1 [Teriflunomide]  -6.67%
32. CC(=O)NC[C@H]1CN(c2ccc(N3CCOCC3)c(F)c2)C(=O)O1 [Linezolid]  -6.21%
33. Nc1ccn([C@@H]2O[C@H](CO)[C@@H](O)C2(F)F)c(=O)n1 [Gemcitabine]  -5.76%
34. CCC(C)SSc1ncc[nH]1 (centres undefined) [PX_12]  -1.42%
35. Oc1ccc(Nc2nc(-c3ccc(Cl)cc3)cs2)cc1 [SKI_II]  0.0721%
36. Fc1ccc(CNc2ncnc3ccc(F)cc23)cc1 [Spautin_1]  2.13%
37. O=C1CSC(c2ccccc2Cl)c2cc(Cl)ccc2N1 (centres undefined)  3.61%
38. O=C1CCCC(=O)C1C(=O)c1ccc(C(F)(F)F)cc1[N+](=O)[O-] [Nitisinone]  5%
39. COc1ccc(C(CN(C)C)C2(O)CCCCC2)cc1 (centres undefined) [Venlafaxine]  6.28%
40. Nc1ccn([C@H]2CC[C@@H](CO)O2)c(=O)n1 [Zalcitabine]  9.86%
41. CC1=C(/C=C/C(C)=C/C=C/C(C)=C/C(=O)O)C(C)(C)CCC1 [Tretinoin]  10%
42. CN1C(=O)[C@@]23C[C@]4([C@]56C[C@@]78SS[C@@](CO)(C(=O)N7[C@H]5Nc5ccccc56)N(C)C8=O)c5ccccc5N[C@@H]4N2C(=O)[C@]1(CO)SS3 [Chaetocin]  11.4%
43. C=C(C)[C@H]1Cc2c(ccc3c2O[C@@H]2COc4cc(OC)c(OC)cc4[C@@H]2C3=O)O1 [Rotenone]  13.7%
44. CN(Cc1ccc(C(C)(C)C)cc1)Cc1cccc2ccccc12 [Butenafine]  14.4%
45. O=[N+]([O-])c1ccc(O)c([N+](=O)[O-])c1 [2_4_Dinitrophenol]  16.9%
46. C=C(C)[C@@H]1CC[C@]2(C(=O)O)CC[C@]3(C)[C@H](CC[C@@H]4[C@@]5(C)CC[C@H](O)C(C)(C)[C@@H]5CC[C@]43C)[C@@H]12 [Betulinic_acid]  17.8%
47. CCCCCCCCCCCCC/C=C/[C@@H](O)[C@H](CO)N(C)C [N_N_Dimethylsphingosine]  18.1%
48. c1ccc2c(c1)[I+]c1ccccc1-2 [Diphenyleneiodonium_chloride]  22.9%
49. C[C@H]1O[C@@H](O[C@H]2[C@@H](O)C[C@H](O[C@H]3[C@@H](O)C[C@H](O[C@H]4CC[C@@]5(C)[C@H](CC[C@@H]6[C@@H]5CC[C@]5(C)[C@@H](C7=CC(=O)OC7)CC[C@]65O)C4)O[C@@H]3C)O[C@@H]2C)C[C@H](O)[C@@H]1O [Digitoxin]  23.7%
50. Cc1ccccc1CN1C(=O)C2=C(CCN(Cc3ccccc3)C2)N2CCN=C12 [ONC-201]  24%
51. O=C(O)c1ccc2cc(-c3ccc(O)c(C45CC6CC(CC(C6)C4)C5)c3)ccc2c1 [CD_437]  25.4%
52. C/C=C(/C)C(=O)O[C@H]1C(C)=C2[C@H]([C@@H]1OC(=O)CCCCCCC)[C@@](C)(OC(C)=O)C[C@H](OC(=O)CCC)[C@@]1(O)[C@H]2OC(=O)[C@@]1(C)O [Thapsigargin]  25.4%
53. O=C(/C=C/c1cccnc1)NCCCCC1CCN(C(=O)c2ccccc2)CC1 [FK_866]  26.9%
54. CC(C)(O)CNc1nc(Nc2ccnc(C(F)(F)F)c2)nc(-c2cccc(C(F)(F)F)n2)n1 [AG-221]  26.9%
55. Cc1c2oc3c(C)ccc(C(=O)N[C@@H]4C(=O)N[C@H](C(C)C)C(=O)N5CCC[C@H]5C(=O)N(C)CC(=O)N(C)[C@@H](C(C)C)C(=O)O[C@@H]4C)c3nc-2c(C(=O)N[C@@H]2C(=O)N[C@H](C(C)C)C(=O)N3CCC[C@H]3C(=O)N(C)CC(=O)N(C)[C@@H](C(C)C)C(=O)O[C@@H]2C)c(N)c1=O [Actinomycin_D]  27.1%
56. CC[C@]1(O)C[C@H]2CN(CCc3c([nH]c4ccccc34)[C@@](C(=O)OC)(c3cc4c(cc3OC)N(C=O)[C@H]3[C@@](O)(C(=O)OC)[C@H](OC(C)=O)[C@]5(CC)C=CCN6CC[C@]43[C@@H]65)C2)C1 [Vincristine_sulfate]  29.6%
57. COc1cc(/C=C/C(=O)CC(=O)/C=C/c2ccc(O)c(OC)c2)ccc1O [Curcumin]  32%
58. NC(=O)c1ccc(N)nc1 [6_Aminonicotinamide]  32.1%
59. Oc1cccnc1NC(c1ccc(Cl)cc1)c1ccc2cccnc2c1O (centres undefined) [Adaptaquin]  33.2%
60. CC1(C)CCC(c2ccc(Cl)cc2)=C(CN2CCN(c3ccc(C(=O)NS(=O)(=O)c4ccc(N[C@H](CCN5CCOCC5)CSc5ccccc5)c(S(=O)(=O)C(F)(F)F)c4)cc3)CC2)C1 [ABT_263]  33.6%
61. CC1=CC(=O)c2c(O)cccc2C1=O [Plumbagin]  34.3%
62. C=C1C(=O)O[C@H]2[C@H]1CC/C(C)=C/CC[C@@]1(C)O[C@@H]21 [Parthenolide]  34.9%
63. S=C=NCCc1ccccc1 [PEITC]  37.8%
64. CC[C@@H]1/C=C/C=C/C[C@H](C)[C@H](O)[C@](C)(O)C(=O)[C@H](C)[C@@H](O)[C@H](C)C(=O)[C@H](C)[C@@H](O)[C@H](C)/C=C/C(=O)O[C@H]2[C@@H](C)[C@@H](CC1)O[C@@]1(CC[C@@H](C)[C@@H](C[C@H](C)O)O1)[C@@H]2C [Oligomycin_A]  40.6%
65. CCCCCCCCCCCCCCOc1ccc(C(=O)O)o1 [TOFA]  48.9%
66. NCCc1ccc(S(=O)(=O)F)cc1 [AEBSF]  50.3%
67. CCOc1ccccc1-n1c(C(C)N2CCN(C(=O)COc3ccc(Cl)cc3)CC2)nc2ccccc2c1=O (centres undefined) [Erastin]  68.6%
68. Nc1ccn([C@@H]2C=C(CO)[C@@H](O)[C@H]2O)c(=O)n1 [Cyclopentenyl_cytosine]  84.2%
69. OC[C@H]1O[C@@H](c2ccc(Cl)c(Cc3ccc(O[C@H]4CCOC4)cc3)c2)[C@H](O)[C@@H](O)[C@@H]1O [Empagliflozin]  86.7%
70. CCOC(=O)c1sc(NC(=O)c2ccco2)c(SC#N)c1C [CBR 5884]  88%
71. Cn1c2cc([S+](C)[O-])sc2c2cnn(Cc3cccc(N)c3)c(=O)c21 (centres undefined) [TEPP_46]  92.3%
72. O=C(/C=C/c1ccc(O)c(O)c1)O[C@@H]1C[C@](O)(C(=O)O)C[C@@H](O)[C@H]1O [Chlorogenic_acid]  95%
73. CN(NC(=O)CC(=O)NN(C)C(=S)c1ccccc1)C(=S)c1ccccc1 [Elesclomol]  111%
74. O=C(C1CC1)N1CC[C@@H](Cc2n[nH]c(=O)n2-c2ccc(-c3ccc4occc4c3)cc2)C1  117%
